Tested on: SKOV3
Assay: Anti-cancer activity against ovarian cancer cells SKOV3 (cell killing in solution / in vitro cell proliferation)
Format: cell-based
Conditions: Homo sapiens, SK-OV-3, ovarian cancer cells SKOV3
Description: Biotinylated LLS2 was synthesized in solution and loaded it onto a streptavidin-coated plate. The biotinylated LLS2 immobilized on the plate killed approximately 21% of SKOV3 ovarian cancer cells at 100 μM loading, 16% at 50 μM and 14% at 25 μM (FIG. 4). The killing effect of the LLS2 compound was also tested in solution. […] In addition, LLS2 can kill pancreatic cancer cell line XPA3, prostate cancer cell line PC3, colon cancer cell line HT29, breast cancer cell line MCF7 and lung cancer cell line A549 (FIG. 4).

Structure (SMILES) | IC50 [µM]
NC(=O)CC(NCc1ccc(Cl)c(Cl)c1)c1ccc2c(c1)nc(-c1ccc(N(CCO)CCO)cc1)n2CC12CC3CC(CC(C3)C1)C2 (stereo not drawn) [LLS28, 3-(1-(((1s,3s)-adamantan-1-yl)methyl)-2-(4-(bis(2-hydroxyethyl)amino)phenyl)-1H-benzo[d]imidazol-5-yl)-3-((3,4-dichlorobenzyl)amino)propanamide] | 16.1
CC(=O)OCCN(CCO)c1ccc(-c2nc3cc(C(CC(N)=O)NCc4ccc(Cl)c(Cl)c4)ccc3n2Cc2ccc(OC(F)(F)F)cc2)cc1 (stereo not drawn) [LLS35, 2-((4-(5-(3-amino-1-((3,4-dichlorobenzyl)amino)-3-oxopropyl)-1-(4-(trifluoromethoxy)benzyl)-1H-benzo[d]imidazol-2-yl)phenyl)(2-hydroxyethyl)amino)ethyl Acetate] | 10.8
NC(=O)CC(NCc1ccc(Cl)c(Cl)c1)c1ccc2c(c1)nc(-c1ccc(N3CCOCC3)cc1)n2Cc1ccc(OC(F)(F)F)cc1 (stereo not drawn) [LLS24, 3-((3,4-dichlorobenzyl)amino)-3-(2-(4-morpholinophenyl)-1-(4-(trifluoromethoxy)benzyl)-1H-benzo[d]imidazol-5-yl)propanamide] | 40.1
CC(=O)OCCN(CCOC(C)=O)c1ccc(-c2nc3cc(C(CC(N)=O)NC(=O)[C@@H](N)Cc4ccc(Cl)c(Cl)c4)ccc3n2CC23CC4CC(CC(C4)C2)C3)cc1 (stereo partly drawn) [LLS6, ((4-(1-(((1s,3R)-adamantan-1-yl)methyl)-5-(3-amino-1-((S)-2-amino-3-(3,4-dichlorophenyl)propanamido)-3-oxopropyl)-1H-benzo[d]imidazol-2-yl)phenyl)azanediyl)bis(ethane-2,1-diyl) Diacetate] | 7.8
CC(=O)OCCN(CCO)c1ccc(-c2nc3cc(C(CC(N)=O)NCc4ccc(Cl)c(Cl)c4)ccc3n2CC23CC4CC(CC(C4)C2)C3)cc1 (stereo not drawn) [LLS32, 2-((4-(1-(((1s,3s)-adamantan-1-yl)methyl)-5-(3-amino-1-((3,4-dichlorobenzyl)amino)-3-oxopropyl)-1H-benzo[d]imidazol-2-yl)phenyl)(2-hydroxyethyl)amino)ethyl Acetate] | 10.4
COc1ccc(C[C@@H](N)C(=O)NC(CC(N)=O)c2ccc3c(c2)nc(-c2cccc(Cn4ccnc4)c2)n3CCc2ccccn2)cc1 (stereo partly drawn) [LLS1, (2R)—N-(1-(2-(3-((1H-imidazol-1-yl)methyl)phenyl)-1-(2-(pyridin-2-yl)ethyl)-1H-benzo[d]imidazol-5-yl)-3-amino-3-oxopropyl)-2-amino-3-(4-methoxyphenyl)propanamide] | 29.5
CC(=O)OCCN(CCOC(C)=O)c1ccc(-c2nc3cc(C(CC(N)=O)NC(=O)Nc4ccc(C(F)(F)F)c(Cl)c4)ccc3n2Cc2ccc(F)c(F)c2)cc1 (stereo not drawn) [LLS15, ((4-(5-(3-amino-1-(3-(3-chloro-4-(trifluoromethyl)phenyl)ureido)-3-oxopropyl)-1-(3,4-difluorobenzyl)-1H-benzo[d]imidazol-2-yl)phenyl)azanediyl)bis(ethane-2,1-diyl) Diacetate] | > 50
CCCC[C@H](N)C(=O)NC(CC(N)=O)c1ccc2c(c1)nc(-c1nccs1)n2CCN1CCCCC1 (stereo partly drawn) [LLS4, (2S)-2-amino-N-(3-amino-3-oxo-1-(1-(2-(piperidin-1-yl)ethyl)-2-(thiazol-2-yl)-1H-benzo[d]imidazol-5-yl)propyl)hexanamide] | > 50
CC(=O)OCCN(CCOC(C)=O)c1ccc(-c2nc3cc(C(CC(N)=O)NCc4ccc(F)c(F)c4)ccc3n2CC23CC4CC(CC(C4)C2)C3)cc1 (stereo not drawn) [LLS8, ((4-(1-(((1s,3s)-adamantan-1-yl)methyl)-5-(3-amino-1-((3,4-difluorobenzyl)amino)-3-oxopropyl)-1H-benzo[d]imidazol-2-yl)phenyl)azanediyl)bis(ethane-2,1-diyl) Diacetate] | 16.7
NC(=O)CC(NCc1c(Cl)cccc1Cl)c1ccc2c(c1)nc(-c1ccc(N(CCO)CCO)cc1)n2Cc1ccc(F)c(F)c1 (stereo not drawn) [LLS14, 3-(2-(4-(bis(2-hydroxyethyl)amino)phenyl)-1-(3,4-difluorobenzyl)-1H-benzo[d]imidazol-5-yl)-3-((2,6-dichlorobenzyl)amino)propanamide] | 29.2
NC(=O)CC(NCc1ccc(Cl)c(Cl)c1)c1ccc2c(c1)nc(-c1ccc(-c3cccc(CO)n3)cc1)n2CC12CC3CC(CC(C3)C1)C2 (stereo not drawn) [LLS7, 3-(1-(((1s,3s)-adamantan-1-yl)methyl)-2-(4-(6-(hydroxymethyl)pyridin-2-yl)phenyl)-1H-benzo[d]imidazol-5-yl)-3-((3,4-dichlorobenzyl)amino)propanamide] | > 50
CC(=O)OCCN(CCOC(C)=O)c1ccc(-c2nc3cc(C(CC(N)=O)NC(=O)[C@@H](N)Cc4ccc(Cl)c(Cl)c4)ccc3n2Cc2cc(F)ccc2F)cc1 (stereo partly drawn) [LLS10, ((4-(5-(3-amino-1-((S)-2-amino-3-(3,4-dichlorophenyl)propanamido)-3-oxopropyl)-1-(2,5-difluorobenzyl)-1H-benzo[d]imidazol-2-yl)phenyl)azanediyl)bis(ethane-2,1-diyl) Diacetate] | 36.4
CC(=O)OCCN(CCOC(C)=O)c1ccc(-c2nc3cc(C(CC(N)=O)NCc4ccc(Cl)c(Cl)c4)ccc3n2Cc2ccc(F)c(Cl)c2)cc1 (stereo not drawn) [LLS21, ((4-(5-(3-amino-1-((3,4-dichlorobenzyl)amino)-3-oxopropyl)-1-(3-chloro-4-fluorobenzyl)-1H-benzo[d]imidazol-2-yl)phenyl)azanediyl)bis(ethane-2,1-diyl) Diacetate] | 8.9
NC(=O)CC(NCc1ccc(Cl)c(Cl)c1)c1ccc2c(c1)nc(-c1ccc(N(CCO)CCO)cc1)n2Cc1ccc(OC(F)(F)F)cc1 (stereo not drawn) [LLS36, 3-(2-(4-(bis(2-hydroxyethyl)amino)phenyl)-1-(4-(trifluoromethoxy)benzyl)-1H-benzo[d]imidazol-5-yl)-3-((3,4-dichlorobenzyl)amino)propanamide] | > 50
NC(=O)CC(NCc1ccc(Cl)c(Cl)c1)c1ccc2c(c1)nc(-c1ccc(N(CCO)CCO)cc1)n2Cc1ccc(F)c(F)c1 (stereo not drawn) [LLS19, 3-(2-(4-(bis(2-hydroxyethyl)amino)phenyl)-1-(3,4-difluorobenzyl)-1H-benzo[d]imidazol-5-yl)-3-((3,4-dichlorobenzyl)amino)propanamide] | 16.8
NC(=O)CC(NCc1ccc(N(CCO)CCO)cc1)c1ccc2c(c1)nc(-c1ccc(N(CCO)CCO)cc1)n2Cc1ccc(Cl)c(Cl)c1 (stereo not drawn) [LLS38, 3-((4-(bis(2-hydroxyethyl)amino)benzyl)amino)-3-(2-(4-(bis(2-hydroxyethyl)amino)phenyl)-1-(3,4-dichlorobenzyl)-1H-benzo[d]imidazol-5-yl)propanamide] | > 50
CC(=O)OCCN(CCO)c1ccc(-c2nc3cc(C(CC(N)=O)NCc4ccc(Cl)c(Cl)c4)ccc3n2Cc2ccc(F)c(Cl)c2)cc1 (stereo not drawn) [LLS34, 2-((4-(5-(3-amino-1-((3,4-dichlorobenzyl)amino)-3-oxopropyl)-1-(3-chloro-4-fluorobenzyl)-1H-benzo[d]imidazol-2-yl)phenyl)(2-hydroxyethyl)amino)ethyl Acetate] | 8.9
NC(=O)CC(NCc1ccc(Cl)c(Cl)c1)c1ccc2c(c1)nc(-c1ccc(N(CCO)CCO)cc1)n2Cc1ccc(C(F)(F)F)c(F)c1 (stereo not drawn) [LLS27, 3-(2-(4-(bis(2-hydroxyethyl)amino)phenyl)-1-(3-fluoro-4-(trifluoromethyl)benzyl)-1H-benzo[d]imidazol-5-yl)-3-((3,4-dichlorobenzyl)amino)propanamide] | > 50

From patent publication US10844052B2, “LLS compounds for treatment of cancer” (THE REGENTS OF THE UNIVERSITY OF CALIFORNIA, priority 2016, dated 2020)
